Values joined by “and” are separate entries in the source; they are usually repeats but may differ in a detail not shown here. Equal entries are not always repeated.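 Five concentrations, 48 hours, 96-well plates. GI50: concentration for 50% inhibition of growth. Definition used: TGI = concentration required for complete inhibition of growth.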
Key:
Experiment in all cases: NCI anticancer screen, dose series, 48 h
[1] = system: MALME-3M melanoma
[2] = system: HCT-116 colon
[3] = system: DMS 114 small cell lung
[4] = system: KM20L2 colon
[5] = system: U251 CNS
[6] = system: SW-620 colon
[7] = system: SNB-75 CNS
[8] = system: SK-OV-3 ovarian
[9] = system: HCC-2998 colon
[10] = system: SK-MEL-5 melanoma

With Cc1cccc(C)c1NC(=O)CCC(=O)NNC(=O)c1cc(O)c2ccccc2c1 the TGI [1] was over 100 µM, the TGI [2] was over 100 µM and the TGI [3] was 65.2 µM. It also gave a TGI [4] of over 100 µM, a TGI [5] of over 100 µM and a TGI [6] of over 100 µM. The TGI [7] was over 100 µM, the TGI [8] was over 100 µM and the TGI [9] was over 100 µM. It also gave a TGI [10] of 84.6 µM.
For Cc1c(/C=C2\CC/C(=C\c3[nH]c(C(=O)OC(C)(C)C)c(C)c3C)C2=O)[nH]c(C(=O)OC(C)(C)C)c1C, the TGI [1] was over 100 µM, the TGI [2] was over 100 µM and the TGI [3] was over 100 µM. It also gave a TGI [4] of over 100 µM, a TGI [5] of over 100 µM and a TGI [6] of over 100 µM. The TGI [7] was over 100 µM, the TGI [8] was over 100 µM and the TGI [9] was over 100 µM. For the same molecule, the TGI [10] was over 100 µM.
In the case of O=C(/C=C/c1ccc(OCCCCCCCCCCOc2ccc(/C=C/C(=O)c3ccc(Cl)cc3)cc2)cc1)c1ccc(Cl)cc1, the TGI [1] is reported as over 100 µM, the TGI [3] is reported as over 100 µM and the TGI [4] is reported as over 100 µM. For the same molecule, the TGI [5] was over 100 µM, the TGI [6] was over 100 µM and the TGI [7] was over 100 µM. It also gave a TGI [8] of over 100 µM, a TGI [9] of over 100 µM and a TGI [10] of over 100 µM.
With COC1/C=C/O[C@@]2(C)Oc3c(C)c(O)c4c(O)c(cc(O)c4c3C2=O)NC(=O)/C(C)=C\C=C\[C@H](C)C(O)[C@@H](C)[C@@H](O)[C@@H](C)[C@H](OC(C)=O)[C@@H]1C (stereo not given in full) the GI50 [1] was 12800 nM, the TGI [1] was 25.9 µM and 77.9 µM and the GI50 [2] was 12.2 µM and 12.5 µM. The TGI [2] was 25.4 µM and 26.1 µM, the TGI [3] was 20.6 µM and the TGI [4] was 30.5 µM. The GI50 [5] was 16500 nM, the TGI [5] was 30.1 µM and 116 µM and the GI50 [6] was 2.72 µM and 7.91 µM. For the same molecule, the TGI [6] was 13.6 µM and 21.9 µM, the GI50 [7] was 18.1 µM and the TGI [7] was 32.3 µM and 119 µM. For the same molecule, the TGI [8] was 211 µM, the GI50 [9] was 15.8 µM and the TGI [9] was 29.2 µM and 49.2 µM. The GI50 [10] was 25600 nM and the TGI [10] was 67.6 µM and 88.1 µM.
For CCCCN(CC)C(=O)C(=O)C1C(=O)Nc2ccccc2S1=O (stereo not given), the TGI [1] was over 100 µM, the TGI [2] was over 100 µM and the TGI [3] was over 100 µM. The TGI [4] was over 100 µM, the TGI [5] was over 100 µM and the TGI [6] was over 100 µM. For the same molecule, the TGI [7] was over 100 µM, the TGI [8] was over 100 µM and the TGI [9] was over 100 µM. The TGI [10] was over 100 µM.
COC(=O)OCC1OC(N2C(=O)NC(=O)C(I)C2N=[N+]=[N-])CC1OC(=O)OC (stereo not given) gave a TGI [1] of over 100 µM, a TGI [2] of over 100 µM and a TGI [4] of over 100 µM. The TGI [5] was over 100 µM, the TGI [6] was over 100 µM and the TGI [7] was over 100 µM. For the same molecule, the TGI [8] was over 100 µM, the TGI [9] was over 100 µM and the TGI [10] was over 100 µM.
In the case of Cc1c(Cl)cccc1NC(=O)CC1Sc2ccccc2NC1=O (stereo not given), the TGI [1] is reported as 50.7 µM and 47.2 µM, the TGI [2] is reported as 46.2 µM and 31.4 µM and the TGI [3] is reported as over 100 µM. The TGI [4] was > 85.9 µM and 55 µM, the TGI [5] was 34.9 µM and 33.6 µM and the GI50 [6] was 11 µM and 26.3 µM. The TGI [6] was 56.8 µM and 77.3 µM, the GI50 [7] was 4.95 µM and 14.5 µM and the TGI [7] was 19 µM and 36.5 µM. The TGI [8] was 33 µM and 39.3 µM, the TGI [9] was 52.7 µM and 34.9 µM and the TGI [10] was 67.7 µM and > 100 µM.
Work on N#C/C(=C\c1ccc(CP(=O)(O)O)cc1)C(N)=O yielded a TGI [1] of over 100 µM, a TGI [2] of over 100 µM and a TGI [3] of over 100 µM. The TGI [4] was over 100 µM, the TGI [5] was over 100 µM and the TGI [6] was over 100 µM. For the same molecule, the TGI [8] was over 100 µM, the TGI [9] was over 100 µM and the TGI [10] was over 100 µM.
COc1cc2c(cc1O)[C@H](C)C(c1ccc(Cl)cc1)O2 (stereo not given in full) was tested, and the TGI [1] was 80.6 µM, the TGI [2] was 30.1 µM and the TGI [3] was 30.8 µM. For the same molecule, the TGI [4] was 66.2 µM, the TGI [5] was 69 µM and the TGI [6] was 38 µM. For the same molecule, the TGI [7] was 43.3 µM, the TGI [8] was over 100 µM and the TGI [9] was 36.1 µM. It also gave a TGI [10] of 31.8 µM.
In the case of OCC(O)CC[CH2][Sn]([c]1ccccc1)([c]1ccccc1)[c]1ccccc1 (stereo not given), the GI50 [2] is reported as 10.8 µM, the TGI [2] is reported as 22.7 µM and the GI50 [4] is reported as 19.4 µM. It also gave a TGI [4] of 34.7 µM, a GI50 [5] of 15600 nM and a TGI [5] of 30.2 µM. It also gave a GI50 [6] of 13.2 µM, a TGI [6] of 26.9 µM and a GI50 [7] of 15.4 µM. The TGI [7] was 29 µM, the GI50 [8] was 19.7 µM and the TGI [8] was 34.1 µM. The GI50 [9] was 18.2 µM, the TGI [9] was 34.5 µM and the GI50 [10] was 15300 nM. It also gave a TGI [10] of 29.1 µM.
For O=c1cc2n(c(=O)[nH]1)C1OC(C(O)C1O)[C@@H]2CCO (stereo not given in full), the TGI [1] was over 100 µM, the TGI [3] was over 100 µM and the TGI [4] was over 100 µM. The TGI [5] was over 100 µM, the TGI [6] was over 100 µM and the TGI [8] was over 100 µM. For the same molecule, the TGI [10] was over 100 µM.
Work on O=c1/c(=C/c2cccc3ccccc23)sc2nc3ccccc3n12 yielded a TGI [1] of over 100 µM, a TGI [2] of over 100 µM and a TGI [3] of over 100 µM. It also gave a TGI [4] of over 100 µM, a TGI [5] of over 100 µM and a TGI [6] of over 100 µM. The TGI [7] was over 100 µM, the TGI [9] was over 100 µM and the TGI [10] was over 100 µM.
Molecule Nc1nc2ncn(CCO)c2c(=O)[nH]1 has a TGI [1] of over 100 µM, a TGI [2] of over 100 µM and a TGI [4] of over 100 µM. For the same molecule, the TGI [5] was over 100 µM, the TGI [6] was over 100 µM and the TGI [7] was over 100 µM. The TGI [8] was over 100 µM and the TGI [9] was over 100 µM.
For COC(=O)N1[C@H]2Cc3c(OC)c(C)c(OC)c(OC)c3[C@@H]1/C(=C\c1cc(OC)c(OC)c(C)c1OC)N(Cc1ccccc1)C2=O, the TGI [1] was 88.7 µM, the TGI [2] was over 100 µM and the TGI [3] was 35.3 µM. It also gave a TGI [4] of over 100 µM, a TGI [5] of over 100 µM and a TGI [7] of over 100 µM. For the same molecule, the TGI [8] was over 100 µM, the TGI [9] was over 100 µM and the TGI [10] was 53.8 µM.
Molecule COc1ccc(CC(=O)c2cc(OC)c(OC)cc2C)cc1OC has a TGI [1] of over 100 µM, a TGI [3] of over 100 µM and a TGI [4] of over 100 µM. The TGI [5] was over 100 µM, the TGI [6] was over 100 µM and the TGI [7] was over 100 µM. The TGI [8] was over 100 µM, the TGI [9] was over 100 µM and the TGI [10] was over 100 µM.
For O=C1CCC2(c3ccc(F)cc3)Nc3ccccc3N12 (stereo not given), the TGI [1] was over 100 µM, the TGI [3] was over 100 µM and the TGI [4] was over 100 µM. It also gave a TGI [5] of over 100 µM, a TGI [6] of over 100 µM and a TGI [7] of over 100 µM. It also gave a TGI [8] of over 100 µM, a TGI [9] of over 100 µM and a TGI [10] of over 100 µM.
Molecule O=C(CC12CC3CC(CC(C3)C1)C2)NCCOCCOCCNC(=O)c1cc2c(o1)C(=O)c1ccccc1C2=O has a GI50 [1] of 134 nM, a TGI [1] of 0.264 µM and a GI50 [2] of 1.58 µM. It also gave a TGI [2] of 4.96 µM, a GI50 [5] of 1370 nM and a TGI [5] of 2.81 µM. It also gave a GI50 [6] of 1.21 µM, a TGI [6] of 2.87 µM and a GI50 [7] of 1.56 µM. For the same molecule, the TGI [7] was 2.9 µM, the GI50 [8] was 2.19 µM and the TGI [8] was 4.71 µM. For the same molecule, the GI50 [9] was 1.78 µM, the TGI [9] was 3.39 µM and the GI50 [10] was 176 nM. The TGI [10] was 0.328 µM.
O=CC1=CCCC2(C1)OCCO2 gave a TGI [1] of over 100 µM, a TGI [2] of over 100 µM and a TGI [3] of over 100 µM. The TGI [5] was over 100 µM, the TGI [6] was over 100 µM and the TGI [7] was 24.2 µM. It also gave a TGI [8] of over 100 µM, a TGI [9] of over 100 µM and a TGI [10] of over 100 µM.
For COc1ccc(-c2cc3c4c(nc5ccccc5c4c2)CC(c2cc(OC)c(OC)c(OC)c2)O3)cc1 (stereo not given), the GI50 [1] was 1320 nM, the TGI [1] was 3.87 µM and the GI50 [2] was 1.31 µM. For the same molecule, the TGI [2] was 4.15 µM, the GI50 [5] was 1760 nM and the TGI [5] was 4.83 µM. The GI50 [6] was 2.63 µM, the TGI [6] was over 100 µM and the GI50 [7] was 1.13 µM. For the same molecule, the TGI [7] was 3.1 µM, the GI50 [8] was 4.08 µM and the TGI [8] was 17.2 µM. It also gave a GI50 [9] of 4.32 µM, a TGI [9] of over 100 µM and a GI50 [10] of 2670 nM. It also gave a TGI [10] of 8.27 µM.
In the case of O=C(NNc1nc2cc(F)ccc2n2c(CN3CCOCC3)ccc12)c1ccccc1, the GI50 [1] is reported as 379 nM, the TGI [1] is reported as 1.81 µM and the GI50 [2] is reported as 0.139 µM. The TGI [2] was 1.38 µM, the GI50 [5] was 207 nM and the TGI [5] was 2.19 µM. The GI50 [6] was 0.33 µM, the TGI [6] was 2.11 µM and the GI50 [7] was 0.3 µM. It also gave a TGI [7] of 3.63 µM, a GI50 [8] of 0.405 µM and a TGI [8] of 3.39 µM. It also gave a GI50 [9] of 0.569 µM, a TGI [9] of 3.07 µM and a GI50 [10] of 438 nM. It also gave a TGI [10] of 2.06 µM.

Source: PubChem BioAssay (NCI)
